Laboratory results reported in US20120121554A1, “HMG-COA SECONDARY METABOLITES AND USES THEREOF” (EDENSPACE SYSTEMS CORPORATION, priority 2009, published 2012).

Tests used:
HMG-CoA reductase = target: T1, HMG-CoA reductase (Rattus norvegicus, UniProt P51639); settings: compound at 10^−3 M; cited from earlier work
T1 sequence (P51639 1-887): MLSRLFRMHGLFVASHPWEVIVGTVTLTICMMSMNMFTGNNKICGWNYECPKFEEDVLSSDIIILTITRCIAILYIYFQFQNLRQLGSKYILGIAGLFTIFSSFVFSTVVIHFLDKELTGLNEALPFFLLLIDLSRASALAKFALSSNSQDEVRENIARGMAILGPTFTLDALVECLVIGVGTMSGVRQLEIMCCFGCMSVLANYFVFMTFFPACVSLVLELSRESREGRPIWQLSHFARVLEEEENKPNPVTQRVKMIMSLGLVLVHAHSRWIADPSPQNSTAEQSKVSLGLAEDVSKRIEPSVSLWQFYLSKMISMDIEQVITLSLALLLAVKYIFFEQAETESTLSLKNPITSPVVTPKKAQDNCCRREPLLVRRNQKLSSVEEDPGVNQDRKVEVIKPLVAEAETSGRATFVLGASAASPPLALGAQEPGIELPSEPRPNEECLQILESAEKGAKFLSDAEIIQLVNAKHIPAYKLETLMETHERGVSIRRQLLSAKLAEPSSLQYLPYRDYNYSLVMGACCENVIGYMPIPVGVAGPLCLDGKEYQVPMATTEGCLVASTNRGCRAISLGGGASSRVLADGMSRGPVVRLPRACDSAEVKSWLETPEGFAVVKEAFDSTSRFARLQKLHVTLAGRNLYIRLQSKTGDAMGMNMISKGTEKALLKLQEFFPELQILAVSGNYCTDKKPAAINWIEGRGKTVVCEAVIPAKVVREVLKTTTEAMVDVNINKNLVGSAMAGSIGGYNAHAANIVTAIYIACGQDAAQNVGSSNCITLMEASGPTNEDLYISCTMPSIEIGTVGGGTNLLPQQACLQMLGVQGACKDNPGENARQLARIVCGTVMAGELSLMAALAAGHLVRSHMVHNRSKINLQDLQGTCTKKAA

[1] = tested on: Experimental autoimmune encephalomyelitis (EAE) in SJL/J mice; experiment: EAE mouse model, clinical assessment (day of onset); format: in vivo
Description: To induce EAE, five-to-seven week old SJL/J (H-2S) female mice (Charles River; Wilmington, Mass.) were immunized subcutaneously with 200 μg PLP139-151 in a 0.2 mL emulsion comprised of equal volumes of phosphate-buffered saline (PBS) and complete Freund's adjuvant (CFA) containing killed Mycobacterium Tuberculosis strain H37RA (at a final concentration of 4 mg/ml, Difco, Detroit, Mich.). PLP139-151/CFA was administered to regions above the shoulder and the flanks (4 sites total; 50 μL at each injection site). In addition, 200 ng of pertussis toxin (List Biological Laboratories, Campbell, Calif.) was injected intraperitoneally on the day of immunization and 2 days post immunization.
Mice received intravenous injections of vehicle (PBS), HMG (25 μmol/mouse), or PLP-BPI (100 nmol/mouse) on days 4, 7, and 10 (n=6 per treatment group).

[2] = tested on: serum cytokines and chemokines; experiment: Serum cytokine and chemokine levels in EAE mice (multiplex ELISA array); format: in vivo, mouse
Description: FIG. 7 depicts serum levels of cytokines and chemokines in various treatment groups (PBS only control, PLP-BPI-treated, and HMG-treated) 14 days after immunization with PLP139-151/CFA to induce EAE. Data represent the mean±standard deviation. Statistical significance was determined by one way Analysis of Variance followed by post-hoc testing using the Tukey test.
Blood samples were collected from the facial vein in PBS-, HMG-, and PLP-BPI-treated mice on day 14 and day 28 (n=3 per group). Blood samples were allowed to clot overnight at 2-8° C. before centrifuging for 10 min at 2000×g. Serum was removed and stored at −80° C. until measurement of cytokines and chemokines was performed by a commercial analytical services laboratory.
The levels of key cytokines and chemokines were measured by multiplex ELISA array by a commercial analytical laboratory.

SMILES | in vitro inhibition of HMGR @10^−3 M (HMG-CoA reductase) | Disease phenotype as compared to vehicle only ([1]; EAE mice, i.v. on days 4, 7, 10) | Delay of average day of onset of EAE as compared to PBS treated mice ([1]; SJL/J mice, HMG 25 μmol/mouse i.v. on days 4, 7, 10) | Day of onset of EAE (day when EAE clinical score is one or more) ([1]; SJL/J mice, i.v. on days 4, 7, 10, HMG 25 μmol/mouse, PLP-BPI 100 nmol/mouse, PBS group day 11) | Serum RANTES level ([2]; day 14, compared to PBS group) | Serum IFN gamma concentration ([2]; day 14, compared to PBS- or PLP-BPI-treated mice) | Serum IL-17 level ([2]; day 14, compared to PLP-BPI-treated animals) | Inflammation as measured by levels of some cytokines ([2]; day 14, versus PBS only) | Serum IL-1 alpha level ([2]; day 14 after immunization, compared to PBS group)
CCCCCCCCCCCCCCCC(O)(CC(=O)O)CC(=O)O [3j] | 99 |  |  |  |  |  |  |  | 
CCCCCCCCCCCCCCCCCCCC(O)(CC(=O)O)CC(=O)O [3m] | 86 |  |  |  |  |  |  |  | 
CC(O)(CC(=O)O)CC(=O)O [HMG, 3-hydroxy-3-methylglutaric acid] |  | ameliorated disease phenotype | about 2 days | 13 days | statistically significant reductions | much lower | significantly lower | reduced inflammation | statistically significant reductions
